Columns and labels:
Rattus norvegicus = experiment: Antiinflammatory activity in ip dosed Sprague-Dawley rat assessed as inhibition of carrageenan-induced foot paw edema measured 2 hrs post carrageenan challenge by plethysmometry; type: functional
[1] = molecular target: T1, Prostaglandin G/H synthase 1 (Ovis aries, UniProt P05979); experiment: Inhibition of ovine COX1 preincubated for 5 mins followed by addition of arachidonic acid as substrate measured after 2 mins by enzyme immunoassay
T1 sequence (P05979 whole entry): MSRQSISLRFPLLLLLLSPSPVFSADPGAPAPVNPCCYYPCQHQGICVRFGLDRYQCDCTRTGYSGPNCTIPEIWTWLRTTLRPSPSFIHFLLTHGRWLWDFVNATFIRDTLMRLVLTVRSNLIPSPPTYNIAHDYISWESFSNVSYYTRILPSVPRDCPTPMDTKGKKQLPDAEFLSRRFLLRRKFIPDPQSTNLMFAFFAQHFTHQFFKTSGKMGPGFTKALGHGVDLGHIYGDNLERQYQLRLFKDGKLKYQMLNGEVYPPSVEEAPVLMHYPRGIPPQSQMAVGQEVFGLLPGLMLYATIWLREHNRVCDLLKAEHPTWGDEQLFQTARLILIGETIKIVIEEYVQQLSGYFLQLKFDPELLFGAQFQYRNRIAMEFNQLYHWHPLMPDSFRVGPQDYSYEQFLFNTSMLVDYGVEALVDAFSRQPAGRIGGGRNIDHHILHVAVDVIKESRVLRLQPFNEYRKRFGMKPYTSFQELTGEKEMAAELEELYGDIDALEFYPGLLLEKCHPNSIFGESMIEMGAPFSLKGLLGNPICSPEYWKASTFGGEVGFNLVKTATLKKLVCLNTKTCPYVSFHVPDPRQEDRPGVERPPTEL

Mus musculus = experiment: Analgesic activity in ip dosed albino Swiss mouse assessed as reduction in licking and blowing response at 58 deg C measured after 60 mins by hot plate test; type: functional; details: 1 h

COc1ccc(NC(=O)CCN2C(=O)NC(c3ccccc3)(c3ccccc3)C2=O)cc1
ED50 (Rattus norvegicus): 98 mg/kg
IC50 [1]: > 100 µM
ED50 (Mus musculus): 71.1 mg/kg

NS(=O)(=O)c1ccc(CNC(=O)CN2C(=O)NC(c3ccccc3)(c3ccccc3)C2=O)cc1
ED50 (Rattus norvegicus): 75 mg/kg
IC50 [1]: > 100 µM
ED50 (Mus musculus): 54.6 mg/kg

NS(=O)(=O)c1ccc(NC(=O)CN2C(=O)NC(c3ccccc3)(c3ccccc3)C2=O)cc1
ED50 (Rattus norvegicus): 97 mg/kg
IC50 [1]: > 100 µM
ED50 (Mus musculus): 66.2 mg/kg

O=C(CN1C(=O)NC(c2ccccc2)(c2ccccc2)C1=O)N/N=C/c1ccccc1
ED50 (Rattus norvegicus): > 200 mg/kg

COc1ccc(NC(=O)CN2C(=O)NC(c3ccccc3)(c3ccccc3)C2=O)cc1
ED50 (Rattus norvegicus): 120 mg/kg
IC50 [1]: > 100 µM
ED50 (Mus musculus): 86 mg/kg

O=C(CN1C(=O)NC(c2ccccc2)(c2ccccc2)C1=O)NCc1ccccc1
ED50 (Rattus norvegicus): > 200 mg/kg

COc1ccc(/C=N/N2C(=O)NC(c3ccccc3)(c3ccccc3)C2=O)cc1
ED50 (Rattus norvegicus): > 200 mg/kg

O=C(CCN1C(=O)NC(c2ccccc2)(c2ccccc2)C1=O)NCc1ccc(F)cc1
ED50 (Rattus norvegicus): 122 mg/kg
IC50 [1]: > 100 µM
ED50 (Mus musculus): 75 mg/kg

O=C(CN1C(=O)NC(c2ccccc2)(c2ccccc2)C1=O)NCc1ccc(F)cc1
ED50 (Rattus norvegicus): 120 mg/kg
IC50 [1]: > 100 µM
ED50 (Mus musculus): 90.9 mg/kg

Cc1ccc(-c2cc(C(F)(F)F)nn2-c2ccc(S(N)(=O)=O)cc2)cc1 [CELECOXIB]
ED50 (Rattus norvegicus): 86.4 mg/kg
ED50 (Mus musculus): 74.1 mg/kg

O=C(CCN1C(=O)NC(c2ccccc2)(c2ccccc2)C1=O)Nc1ccc(F)cc1
ED50 (Rattus norvegicus): 123 mg/kg
IC50 [1]: > 100 µM
ED50 (Mus musculus): 80.1 mg/kg

O=C(CN1C(=O)NC(c2ccccc2)(c2ccccc2)C1=O)N/N=C/c1ccc(F)cc1
ED50 (Rattus norvegicus): > 200 mg/kg

COc1ccc(CNC(=O)CN2C(=O)NC(c3ccccc3)(c3ccccc3)C2=O)cc1
ED50 (Rattus norvegicus): 109 mg/kg
IC50 [1]: > 100 µM
ED50 (Mus musculus): 67.3 mg/kg

NS(=O)(=O)c1ccc(NC(=O)CCN2C(=O)NC(c3ccccc3)(c3ccccc3)C2=O)cc1
ED50 (Rattus norvegicus): 75 mg/kg
IC50 [1]: > 100 µM
ED50 (Mus musculus): 40.3 mg/kg

COc1ccc(/C=N/NC(=O)CN2C(=O)NC(c3ccccc3)(c3ccccc3)C2=O)cc1
ED50 (Rattus norvegicus): > 200 mg/kg

COc1ccc(C(=O)CN2C(=O)NC(c3ccccc3)(c3ccccc3)C2=O)cc1
ED50 (Rattus norvegicus): 155 mg/kg
IC50 [1]: 70.5 µM
ED50 (Mus musculus): 184 mg/kg

O=C(CCN1C(=O)NC(c2ccccc2)(c2ccccc2)C1=O)Nc1ccccc1
ED50 (Rattus norvegicus): > 200 mg/kg

O=C(CN1C(=O)NC(c2ccccc2)(c2ccccc2)C1=O)c1ccc(F)cc1
ED50 (Rattus norvegicus): 156 mg/kg
IC50 [1]: 70.5 µM
ED50 (Mus musculus): 142 mg/kg

O=C(CN1C(=O)NC(c2ccccc2)(c2ccccc2)C1=O)Nc1ccccc1
ED50 (Rattus norvegicus): > 200 mg/kg

COc1cc(CNC(=O)CN2C(=O)NC(c3ccccc3)(c3ccccc3)C2=O)cc(OC)c1OC
ED50 (Rattus norvegicus): 90 mg/kg
IC50 [1]: > 100 µM
ED50 (Mus musculus): 68.5 mg/kg

COc1ccc(CNC(=O)CCN2C(=O)NC(c3ccccc3)(c3ccccc3)C2=O)cc1
ED50 (Rattus norvegicus): 112 mg/kg
IC50 [1]: > 100 µM
ED50 (Mus musculus): 122 mg/kg

O=C(CN1C(=O)NC(c2ccccc2)(c2ccccc2)C1=O)Nc1ccc(F)cc1
ED50 (Rattus norvegicus): 129 mg/kg
IC50 [1]: > 100 µM
ED50 (Mus musculus): 119 mg/kg

O=C(CCN1C(=O)NC(c2ccccc2)(c2ccccc2)C1=O)NCc1ccccc1
ED50 (Rattus norvegicus): > 200 mg/kg

O=C(CN1C(=O)NC(c2ccccc2)(c2ccccc2)C1=O)c1ccccc1
ED50 (Rattus norvegicus): > 200 mg/kg

Reference: ChEMBL document CHEMBL3785088, “Synthesis, anti-inflammatory, analgesic and COX-1/2 inhibition activities of anilides based on 5,5-diphenylimidazolidine-2,4-dione scaffold: Molecular docking studies” (Eur J Med Chem, 2016)
